Assay [1] deals with serum calcium concentration.
Experimental: Biological Assay Of Calcitonin Analogs In Vivo
Rats were divided into four groups of seven animals, and each group was assigned at random to a dose of standard or test solution. Low and high doses were chosen from the linear portion of the dose-response curve. For the salmon calcitonin standard, the values were 0.7 and 2.1 ng. peptide/100 g. body weight (BW). This dose approximates 3 and 9 MU/100 g. […] Peptides were given by subcutaneous injection (0.2 ml/100 g. BW) and blood was withdrawn 1 hour later for serum calcium determination. Sera are processed and analyzed within two hours of collection. Results were analyzed within two hours of collection.
The conditions of assay [2]: literature values, Monikawa et al.; cited from earlier work.

Here are results for 3 compounds from patent US4746728A, “8-glycine, des-19-leucine-calcitonin” (Armour Pharmaceutical Company, priority 1986, dated 1988).

Positions of bridges follow the written chain, without caps; N, C: chain ends. Residues, ends and D or L forms follow the SMILES beside them. No end group written: not given here.

As for `CC(C)C[C@H](NC(=O)CNC(=O)[C@@H]1CSSC[C@H](N)C(=O)N[C@@H](CO)C(=O)N[C@@H](CC(N)=O)C(=O)N[C@@H](CC(C)C)C(=O)N[C@@H](CO)C(=O)N[C@@H]([C@@H](C)O)C(=O)N1)C(=O)NCC(=O)N[C@@H](CCCCN)C(=O)N[C@@H](CC(C)C)C(=O)N[C@@H](CO)C(=O)N[C@@H](CCC(N)=O)C(=O)N[C@@H](CCC(=O)O)C(=O)N[C@@H](CC(C)C)C(=O)N[C@@H](Cc1c[nH]cn1)C(=O)N[C@@H](CCCCN)C(=O)N[C@@H](CCC(N)=O)C(=O)N[C@H](C(=O)N[C@@H](Cc1ccc(O)cc1)C(=O)N1CCC[C@H]1C(=O)N[C@@H](CCCNC(=N)N)C(=O)N[C@H](C(=O)N[C@@H](CC(N)=O)C(=O)N[C@H](C(=O)NCC(=O)N[C@@H](CO)C(=O)NCC(=O)N[C@H](C(=O)N1CCC[C@H]1C(N)=O)[C@@H](C)O)[C@@H](C)O)[C@@H](C)O)[C@@H](C)O` [Gly^8, des-Leu^19 -SCT, 8-glycine, des-19-leucine-salmon calcitonin] (H-CSNLSTCGLGKLSQELHKQTYPRTNTGSGTP-NH2; disulfide 1-7), the biological potency in assay [1] (rat, in vivo, sc) is reported as 11,400 IU/mg.

With `CC(C)C[C@H](NC(=O)[C@H](CCCCN)NC(=O)CNC(=O)[C@H](CC(C)C)NC(=O)[C@@H](NC(=O)[C@@H]1CSSC[C@H](N)C(=O)N[C@@H](CO)C(=O)N[C@@H](CC(N)=O)C(=O)N[C@@H](CC(C)C)C(=O)N[C@@H](CO)C(=O)N[C@@H]([C@@H](C)O)C(=O)N1)C(C)C)C(=O)N[C@@H](CO)C(=O)N[C@@H](CCC(N)=O)C(=O)N[C@@H](CCC(=O)O)C(=O)N[C@@H](CC(C)C)C(=O)N[C@@H](Cc1c[nH]cn1)C(=O)N[C@@H](CCCCN)C(=O)N[C@@H](CC(C)C)C(=O)N[C@@H](CCC(N)=O)C(=O)N[C@H](C(=O)N[C@@H](Cc1ccc(O)cc1)C(=O)N1CCC[C@H]1C(=O)N[C@@H](CCCNC(=N)N)C(=O)N[C@H](C(=O)N[C@@H](CC(N)=O)C(=O)N[C@H](C(=O)NCC(=O)N[C@@H](CO)C(=O)NCC(=O)N[C@H](C(=O)N1CCC[C@H]1C(N)=O)[C@@H](C)O)[C@@H](C)O)[C@@H](C)O)[C@@H](C)O` [salmon calcitonin, Salmon calcitonin], the “potency of the standard salmon calcitonin used” value in assay [1] (independently determined content of the standard) is listed as “greater than 4,000 IU/mg”.

Regarding “eel calcitonin (CSNLSTCVLGKLSQELHKLQTYPRTDVGAGTP; ends and bridges not checked; cysteine pairing not given here; UniProt P01262 1-32, looked up) [synthetic eel calcitonin, natural 32-amino-acid calcitonin peptide]”, the hypocalcemic potency result in assay [2] was “around 4300 IU/mg”.
